In the supplement of paper PMC10307832:

Tests used:
Experiment in all cases: relative viability (nuclei count vs DMSO), 5 days (fraction); higher = more cells survive
Sulindac + Lapatinib = compound: CC1=C(CC(=O)O)c2cc(F)ccc2/C1=C\c1ccc([S+](C)[O-])cc1 [Sulindac] + CS(=O)(=O)CCNCc1ccc(-c2ccc3ncnc(Nc4ccc(OCc5cccc(F)c5)c(Cl)c4)c3c2)o1 [Lapatinib] (partner 2 µM)
Procedure, shortened: (§1)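 Relative viability is defined as nuclei in treated wells over nuclei in vehicle wells. Duplicate plates were run and medians reported. Lung cancer cell lines in 1536-well plates were dosed by pin tool one day after seeding, with one drug or with a fixed anchor-drug dose plus five library-drug doses (not always all listed) in √10 steps, and nuclei were counted after 5 days.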

[1] = compound: O=c1[nH]cc(F)c(=O)[nH]1 [5-Fluorouracil] + C[C@@H](Oc1cc(-c2cnn(C3CCNCC3)c2)cnc1N)c1c(Cl)ccc(F)c1Cl [Crizotinib] (partner 1 µM)
Procedure, shortened: as §1

[2] = compound: O=c1[nH]cc(F)c(=O)[nH]1 [5-Fluorouracil] + CC(=O)Nc1cccc(-n2c(=O)n(C3CC3)c(=O)c3c(Nc4ccc(I)cc4F)n(C)c(=O)c(C)c32)c1 [Trametinib] (partner 0.02 µM)
Procedure, shortened: as §1

[3] = compound: O=c1[nH]cc(F)c(=O)[nH]1 [5-Fluorouracil] + CC(=O)c1c(C)c2cnc(Nc3ccc(N4CCNCC4)cn3)nc2n(C2CCCC2)c1=O [Palbociclib] (partner 0.5 µM)
Procedure, shortened: as §1

| Cell Line | relative viability (Sulindac + Lapatinib; first compound 0.08 µM) | relative viability (Sulindac + Lapatinib; first compound 0.253 µM) | relative viability (Sulindac + Lapatinib; first compound 0.8 µM) | relative viability (Sulindac + Lapatinib; first compound 2.53 µM) | relative viability (Sulindac + Lapatinib; first compound 8 µM) | relative viability ([1]; first compound 0.02 µM) | relative viability ([1]; first compound 0.2 µM) | relative viability ([1]; first compound 0.6325 µM) | relative viability ([1]; first compound 2 µM) | relative viability ([2]; first compound 0.02 µM) | relative viability ([2]; first compound 0.2 µM) | relative viability ([2]; first compound 0.6325 µM) | relative viability ([2]; first compound 2 µM) | relative viability ([3]; first compound 0.02 µM) | relative viability ([3]; first compound 0.2 µM) | relative viability ([3]; first compound 0.6325 µM) | relative viability ([3]; first compound 2 µM) |
| --- | --- | --- | --- | --- | --- | --- | --- | --- | --- | --- | --- | --- | --- | --- | --- | --- | --- |
| NCI-H1563 | 0.992 | 0.901 | 0.884 | 0.879 | 0.933 | 0.798 | 0.806 | 0.892 | 0.699 |  |  |  |  |  |  |  |  |
| Calu-6 | 1.29 | 1.04 | 1.09 | 1.25 | 1.3 | 0.872 | 0.859 | 0.693 | 0.427 |  |  |  |  |  |  |  |  |
| NCI-H322M | 0.632 | 0.626 | 0.523 | 0.565 | 0.561 | 1.09 | 0.807 | 0.699 | 0.491 | 0.532 | 0.664 | 0.463 | 0.456 |  |  |  |  |
| NCI-H1395 | 1.2 | 1.08 | 1.01 | 0.8 | 1.15 |  |  |  |  | 1.03 | 0.987 | 1.12 | 1.11 | 0.538 | 0.692 | 0.641 | 0.609 |
| EBC-1 | 0.213 | 0.211 |  | 0.237 | 0.218 | 0.177 | 0.214 | 0.206 | 0.202 |  |  |  |  |  |  |  |  |
| NCI-H596 | 1.02 | 0.983 | 1.01 | 0.973 | 1.21 | 0.971 | 0.788 | 0.64 | 0.578 | 0.845 | 0.649 | 0.632 | 0.479 |  |  |  |  |
| NCI-H1648 |  |  |  |  |  |  |  |  |  | 0.467 | 0.405 | 0.466 | 0.306 | 0.297 | 0.267 | 0.281 | 0.241 |
| NCI-H1703 | 1.37 | 1.37 | 0.97 | 1.25 | 1.08 | 0.83 | 0.564 | 0.378 | 0.479 |  |  |  |  |  |  |  |  |
| ChaGo-K-1 |  |  |  |  |  | 1.15 | 1.06 | 0.821 | 0.711 | 0.934 | 0.796 | 0.691 | 0.499 | 0.958 | 0.914 | 0.803 | 0.51 |
| SW 900 |  |  |  |  |  |  |  |  |  | 0.747 | 0.735 | 0.59 | 0.558 | 0.481 | 0.473 | 0.497 | 0.416 |
| NCI-H2342 |  |  |  |  |  |  |  |  |  | 0.932 | 0.762 | 0.843 | 0.662 | 0.497 | 0.543 | 0.536 | 0.518 |
| A549 | 1.12 | 0.975 | 0.995 | 1.04 | 1.22 | 0.783 | 0.517 | 0.295 | 0.107 |  |  |  |  |  |  |  |  |
| LCLC-103H |  |  |  |  |  | 1.1 | 1.11 | 0.883 | 0.566 | 0.733 | 0.671 | 0.598 | 0.566 | 0.476 | 0.472 | 0.471 | 0.471 |
